Laboratory results as given in patent US20100009956A1, “NOVEL SUBSTITUTED PYRIMIDINES AS CYSTEINE PROTEASE INHIBITORS” (Glaxo Group Limited , a corporation, priority 2006, published 2010).
Where a name gives a salt, the structure may show the parent alone. Read-outs that look alike come from different tables or passages of the source.

Tests used:
[1] = target: Falcipain-2 (Plasmodium falciparum, UniProt Q8I6U4); test: Falcipain-2 enzymatic assay (assay 1); assay type: biochemical
Summary of the method: (§1)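 Recombinant parasite enzyme with 30 uM H-D-VLR-AFC in 100 mM sodium acetate pH 5.5, 10 mM DTT, 0.5 mM CHAPS, 1% DMSO, ambient temperature. Endpoint after 60 minutes, quenched with 16.6 uM E-64; AFC fluorescence (ex 405/em 530). IC50 from four-parameter fit, apparent KI assuming competitive inhibition.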

[2] = target: Falcipain-3 (Plasmodium falciparum, UniProt Q8IIL0); test: Falcipain-3 enzymatic assay (assay 1); assay type: biochemical
Sequence of Falcipain-3 (Q8IIL0 243-492): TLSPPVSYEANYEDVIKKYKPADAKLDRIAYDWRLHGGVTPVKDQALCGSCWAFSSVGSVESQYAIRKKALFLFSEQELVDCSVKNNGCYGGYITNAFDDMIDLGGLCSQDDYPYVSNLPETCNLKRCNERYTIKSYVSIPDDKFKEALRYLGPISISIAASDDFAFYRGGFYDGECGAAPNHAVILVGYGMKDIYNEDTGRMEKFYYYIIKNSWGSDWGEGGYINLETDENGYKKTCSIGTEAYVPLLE
Summary of the method: as §1

[3] = target: T1, Cathepsin K (Homo sapiens, UniProt P43235); test: Cathepsin K enzymatic assay (assay 1); assay type: biochemical; conditions: human recombinant enzyme, Z-FR-AFC substrate, pH 5.5
T1 sequence (P43235 115-329): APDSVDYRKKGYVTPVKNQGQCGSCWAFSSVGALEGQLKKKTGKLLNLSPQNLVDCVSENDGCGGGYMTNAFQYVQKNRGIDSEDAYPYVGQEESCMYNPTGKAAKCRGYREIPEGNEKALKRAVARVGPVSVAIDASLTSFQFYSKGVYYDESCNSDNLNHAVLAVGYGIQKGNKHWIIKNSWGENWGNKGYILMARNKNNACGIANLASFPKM
Summary of the method: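 Human recombinant cathepsin K was assayed with the fluorogenic substrate Z-FR-AFC at 20 uM in 100 mM sodium acetate, pH 5.5, with 5 mM L-cysteine, 1 mM CHAPS, 5 mM EDTA and 1% DMSO. Enzyme plus substrate was added to wells holding inhibitor in DMSO. After 60 minutes at ambient temperature, 16.6 uM E-64 quenched the reaction. AFC fluorescence (excitation 405 nm, emission 530 nm) was read, and IC50 came from a four-parameter dose-response fit.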

[4] = target: Cathepsin S (Homo sapiens, UniProt P25774); test: Cathepsin S enzymatic assay (assay 1); assay type: biochemical; conditions: human recombinant enzyme, KQKLR-AMC substrate, pH 6.5
Sequence of Cathepsin S (P25774 115-331): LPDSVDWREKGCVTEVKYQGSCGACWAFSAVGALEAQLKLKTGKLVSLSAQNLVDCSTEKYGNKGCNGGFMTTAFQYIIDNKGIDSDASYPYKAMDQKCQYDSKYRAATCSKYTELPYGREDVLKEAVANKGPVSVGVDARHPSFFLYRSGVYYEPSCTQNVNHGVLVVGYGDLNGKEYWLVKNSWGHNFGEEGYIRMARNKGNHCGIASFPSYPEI
Protocol: Assay 1) Determination of Falcipain-2, Falcipain-3, Vivapain-2, Cathepsin K Cathepsin S, Cathepsin L, and Cathepsin B Proteolytic Catalytic Activity
Assays for Falcipain-2, Falcipain-3, and Vivapain-2 are carried out with parasitic recombinant enzymes. Cathepsins K, S, L, and B are carried out with human recombinant enzymes. Standard assay conditions for the determination of kinetic constants used a fluorogenic peptide substrate, typically H-D-VLR-AFC (Falcipain-2, Falcipain-3, Vivapain-2), Z-FR-AFC (Cathepsin K, L, B), or KQKLR-AMC (Cathepsin S) and are determined in 100 mM sodium acetate, pH 5.5, containing 10 mM DTT and 0.5 mM CHAPS (Falcipain-2, Falcipain-3, Vivapain-2), and 100 mM sodium acetate, pH 5.5, containing 5 mM L-cysteine, 1 mM CHAPS and 5 mM EDTA (Cathepsin K, L, B), or 50 mM MES, pH 6.5, containing 0.5 mM CHAPS, 10 mM L-CYS, 5 mM EDTA (Cathepsin S). Stock substrate solutions are prepared at 20 mM in DMSO. The activity assays contained 30 uM substrate (Falcipain-2, Falcipain-3, Vivapain-2), 20 uM substrate (Cathepsin K), 25 uM substrate (Cathepsin B), 5 uM substrate (Cathepsin L), and 30 uM substrate (Cathepsin S). All assays contained 1% DMSO. […] All assays are conducted at ambient temperature as end point assays being quenched after 60 minutes with the exception of Cathepsin S at 90 minutes, with 16.6 uM E-64 in 1% DMSO. Product formation (AFC or AMC) is determined from fluorescence (excitation at 405 nm; emission at 530 nm, AFC, or excitation at 360 nm; emission at 460 nm, AMC) monitored with a LJL Aquest (Molecular Devices) fluorescent plate reader. In the case of kinetic reads (used in mechanism of action studies), the reaction is not quenched but is read in the plate reader every 3 minutes for approximately 90 minutes. In addition, the mechanism of action studies for Falcipain-2 utilize Z-LR-AMC as the substrate. Product formation is determined from the fluorescence of AMC, measured with a LJL Acquest (Molecular Devices) fluorescent plate reader (excitation at 360 nm; emission at 460 nm).
Potential inhibitors are evaluated using the quenched read (endpoint) method. Assays are carried out in the presence of variable concentrations of test compound. Reactions are initiated by addition of enzyme and substrate to wells containing inhibitor stamped in 100% DMSO. For endpoint assays, the reaction is quenched with the addition of E64. Dose response data is fit to an IC50 curve with preset fitting tools according to equation 1:
y=a+(b−a)/(1+(10^x/10^c)^d) (1)
where y is the response at a particular inhibitor concentration x, a is the minimum response value, b is the maximum response value, c is the IC50, and d is the slope of the IC50 curve. Assuming the compound is a competitive inhibitor, the apparent KI can be calculated from IC50, as shown in equation 2: […]

[5] = tested on: Plasmodium falciparum parasite; test: Whole cell assay (assay 2); assay type: cell-based; conditions: Plasmodium falciparum
Text: Assay 2) Determination of Whole Cell Activity Against the Plasmodium falciparum Parasite
Compounds can be evaluated for whole cell actvity against the Plasmodium falciparum parasite according to the procedure described in Sijwali S. and Rosenthal P. J., (2004) Proceedings of the National Academy of Sciences of the United States of America (PNAS) 101 (13), 4384-4389 (see in particular “Measurement of Parasite Growth rates and Inhibitor Sensitivity” on page 4385); IC50 values can be calculated as described in Singh A. and Rosenthal P. J., (2001) Antimicrobial Agents and Chemotherapy 45(3), 949-951 (see in particular page 950, first column); synchronised parasites can be prepared as described in Divo A. A. et al., (1985) Protozool. 32, 59-64.

[6] = parasitic recombinant enzyme, H-D-VLR-AFC substrate, pH 5.5, endpoint read, read-out: Falcipain-3 IC50

Sequence of Falcipain-2 (Q8I6U4 244-484): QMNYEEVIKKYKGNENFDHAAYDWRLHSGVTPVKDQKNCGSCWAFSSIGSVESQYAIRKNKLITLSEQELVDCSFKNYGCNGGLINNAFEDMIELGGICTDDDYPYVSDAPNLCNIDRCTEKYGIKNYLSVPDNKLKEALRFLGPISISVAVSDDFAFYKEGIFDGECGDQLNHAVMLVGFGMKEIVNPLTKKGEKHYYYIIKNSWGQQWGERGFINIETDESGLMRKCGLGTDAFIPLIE

SMILES	IC50 [1]	IC50 [2]	IC50 [3]	IC50 [4]	IC50 [2, 6]	IC50 ([1]; parasitic recombinant enzyme, H-D-VLR-AFC substrate, pH 5.5, endpoint read, read-out: Falcipain-2 IC50)	IC50 [5]
CC1CCC(N(NC(=O)c2ccc(CN3CCC(N4CCN(C)CC4)CC3)cc2)c2nc(C#N)ncc2Br)C1 (mixture of isomers) [Example 4, N′-(5-bromo-2-cyano-4-pyrimidinyl)-N′-(3-methylcyclopentyl)-4-{[4-(4-methyl-1-piperazinyl)-1-piperidinyl]methyl}benzohydrazide trifluoroacetate]	< 1 nM	1 to 2.5 nM	< 1.5 nM	< 1000 nM			
CC1CCC(N(NC(=O)c2ccc(CN3CCN(CC4CCN(C)CC4)CC3)cc2)c2nc(C#N)ncc2Br)C1 (mixture of isomers) [Example 5, N′(5-bromo-2-cyano-4-pyrimidinyl)-N′-(3-methylcyclopentyl)-4-({4-[(1-methyl4-piperidinyl)methyl]-1-piperazinyl}methyl)benzohydrazide trifluoroacetate]	< 1 nM	15 to 150 nM	< 1.5 nM	< 1000 nM			
CN1CCN(Cc2ccc(C(=O)NN(c3nc(C#N)ncc3Br)C3CCCC3)cc2)CC1 [Example 1, N′-(5-bromo-2-cyano-4-pyrimidinyl)-N′-cyclopentyl-4-[(4-methyl-1-piperazinyl)methyl]benzohydrazide trifluoroacetate]	< 1 nM		< 1.5 nM	< 200 nM			
CN1CCN(C2CCN(Cc3ccc(C(=O)NN(c4nc(C#N)ncc4Br)C4CCCCC4)cc3)CC2)CC1 [Example 17, N′-(5-bromo-2-cyano-4-pyrimidinyl)-N′-cyclohexyl-4-{[4-(4-methyl-1-piperazinyl)-1-piperidinyl]methyl}benzohydrazide trifluoroacetate]	< 1 nM	2.5 to 15 nM	< 1.5 nM	< 1000 nM			
CN1CCCC(CN2CCN(Cc3cccc(C(=O)NN(c4nc(C#N)ncc4Br)C4CCCCC4)c3)CC2)C1 (stereo not shown) [Example 27, N′-(5-bromo-2-cyano-4-pyrimidinyl)-N′-cyclohexyl-3-({4-[(1-methyl-3-piperidinyl)methyl]-1-piperazinyl}methyl)benzohydrazide trifluoroacetate]	< 1 nM	2.5 to 15 nM	< 1.5 nM	< 1000 nM			
CN1CCN(C2CCN(Cc3ccc(C(=O)NN(c4nc(C#N)ncc4Cl)C4CCCCC4)cc3)CC2)CC1 [Example 40, N′-(5-chloro-2-cyano-4-pyrimidinyl)-N′-cyclohexyl-4-{[4-(4-methyl-1-piperazinyl)-1-piperidinyl]methyl}benzohydrazide]	< 1 nM		< 1.5 nM	< 200 nM	2.5 to 15 nM		
CN1CCN(C2CCN(Cc3ccc(C(=O)NN(c4nc(C#N)ncc4Cl)C4CCCCC4)cc3)CC2)CC1 [Example 41, N′-(5-chloro-2-cyano-4-pyrimidinyl)-N′-cyclohexyl-4-{([4-(4-methyl-1-piperazinyl)-1-piperidinyl]methyl}benzohydrazidedihydrochloride]			< 1.5 nM	< 200 nM			
CN1CCN(Cc2ccc(-c3ccc(C(=O)NN(c4nc(C#N)ncc4Br)C4CCCCC4)cn3)cc2)CC1 [Example 44, N′-(5-bromo-2-cyano-4-pyrimidinyl)-N′-cyclohexyl-6-{4-[(4-methyl-1-piperazinyl)methyl]phenyl}-3-pyridinecarbohydrazide trifluoroacetate]	< 1 nM	2.5 to 15 nM	< 1.5 nM	< 200 nM			
CN1CCN(Cc2ccc(-c3ccc(C(=O)NN(c4nc(C#N)ncc4Br)C4CCCC4)cn3)cc2)CC1 [Example 46, N′-(5-bromo-2-cyano-4-pyrimidinyl)-N′-cyclopentyl-6-{4-[(4-methyl-1-piperazinyl)methyl]phenyl}-3-pyridinecarbohydrazide trifluoroacetate]	< 1 nM	15 to 150 nM	< 1.5 nM	< 200 nM			
CN1CCN(Cc2cccc(-c3cncc(C(=O)NN(c4nc(C#N)ncc4Br)C4CCCCC4)c3)c2)CC1 [Example 47, N′-(5-bromo-2-cyano-4-pyrimidinyl)-N′-cyclohexyl-5-{3-[(4-methyl-1-piperazinyl)methyl]phenyl}-3-pyridinecarbohydrazide trifluoroacetate]	< 1 nM	2.5 to 15 nM	< 1.5 nM	< 200 nM			
CC(=O)N1CCC(N(NC(=O)c2ccc(CN3CCC(C(=O)N4CCN(C)CC4)CC3)cc2)c2nc(C#N)ncc2Br)CC1 [Example 49, N′-(1-acetyl-4-piperidinyl)-N′-(5-bromo-2-cyano-4-pyrimidinyl)-4-({4-[(4-methyl-1-piperazinyl)carbonyl]-1-piperidinyl}methyl)benzohydrazide trifluoroacetate]	< 1 nM	15 to 150 nM	< 17 nM	< 200 nM			
CN1CCN(Cc2ccc(C(=O)NN(c3nc(C#N)ncc3Cl)C3CCCC3)cc2)CC1 [Example 50, N′-(5-chloro-2-cyano-4-pyrimidinyl)-N′-cyclopentyl-4-[(4-methyl-1-piperazinyl)methyl]benzohydrazide trifluoroacetate]		15 to 150 nM	< 1.5 nM	< 200 nM		< 1 nM	
CN1CCN(Cc2ccc(C(=O)NN(c3nc(C#N)ncc3Cl)C3CCCCC3)cc2)CC1 [Example 51, N′-(5-chloro-2-cyano-4-pyrimidinyl)-N′-cyclohexyl-4-[(4-methyl-1-piperazinyl)methyl]benzohydrazide trifluoroacetate]	1 to 2.5 nM	15 to 150 nM	< 1.5 nM	< 200 nM			
CN1CCN(c2ncc(C(=O)NN(c3nc(C#N)ncc3Cl)C3CCCC3)s2)CC1 [Example 77, N′-(5-chloro-2-cyano-4-pyrimidinyl)-N′-cyclopentyl-2-(4-methyl-1-piperazinyl)-1,3-thiazole-5-carbohydrazide trifluoroacetate]	< 1 nM	15 to 150 nM					15 to 150 nM
CCN(CCCNC(=O)OC(C)(C)C)Cc1ccc(C(=O)NN(c2nc(C#N)ncc2Cl)C2CCCC2)cc1 [Example 81, 1,1-dimethylethyl{3-[[(4-{[2-(5-chloro-2-cyano-4-pyrimidinyl)-2-cyclopentylhydrazino]carbonyl}phenyl)methyl](ethyl)amino]propyl}carbamate]	< 1 nM			< 200 nM	2.5 to 15 nM		
